{
  "source": "patent US9855230B2",
  "about": "(ViiV Healthcare UK (No. 5) Limited, priority 2014, dated 2018)",
  "key": {"[1]": {"tested_on": "recombinant NL4-3 virus (nef section replaced with Renilla luciferase gene) in MT-2 cells", "assay": "whole plant or invertebrate", "format": "cell-based, HIV", "conditions": "NL43, luciferase activity in MT-2 cells infected 4-5 days with recombinant NL4-3 virus", "summary_of_the_method": "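Nef-deleted NL4-3 reporter virus carrying Renilla luciferase was used to infect MT-2 cells in the presence of serial compound dilutions. After 4-5 days of infection, antiviral activity was quantified from luciferase activity using a live-cell substrate.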"}, "[2]": {"assay": "Compound cytotoxicity (CC50), XTT-based colorimetric assay", "format": "cell-based", "conditions": "human; uninfected MT2 cells, day 4, XTT assay", "summary_of_the_method": "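Run under the antiviral-assay protocol but without virus. Viability was read on day 4 and CC50 values were derived from the readout.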"}},
  "note": "Where a name gives a salt, the structure may show the parent alone. Read-outs that look alike come from different tables or passages of the source.",
  "data": [
    {"smiles": "NC(=O)c1cc(-c2cccnc2[C@@H](Cc2cc(F)cc(F)c2)NC(=O)NS(=O)(=O)c2ccccc2Cl)ccc1F", "note": "[Example 109, (R)-5-(2-(1-(3-((2-chlorophenyl)sulfonyl)ureido)-2-(3,5-difluorophenyl)ethyl)pyridin-3-yl)-2-fluorobenzamide, TFA]", "values": [
      {"measurement": "EC50", "setting": "[1]; read-out: Activity", "result": "> 1", "unit": "µM"},
      {"measurement": "CC50 at 4 day", "setting": "[2]", "result": "> 100", "unit": "µM"}
    ]},
    {"smiles": "O=C(N[C@H](Cc1cc(F)cc(F)c1)c1ncccc1-c1cncc(F)c1)NS(=O)(=O)c1ccccc1Cl", "note": "[Example 110, (R)-2-chloro-N-((2-(3,5-difluorophenyl)-1-(5′-fluoro-[3,3′-bipyridin]-2-yl)ethyl)carbamoyl)benzenesulfonamide, TFA]", "values": [
      {"measurement": "EC50", "setting": "[1]; read-out: Activity", "result": "> 1", "unit": "µM"},
      {"measurement": "CC50 at 4 day", "setting": "[2]", "result": "> 33", "unit": "µM"}
    ]},
    {"smiles": "COC(=O)Nc1ccc(-c2cccnc2[C@@H](Cc2ccccc2)NC(=O)NS(=O)(=O)c2ccccc2Cl)cc1", "note": "[Example 111, (R)-methyl (4-(2-(1-(3-((2-chlorophenyl)sulfonyl)ureido)-2-phenylethyl)pyridin-3-yl)phenyl)carbamate, TFA]", "values": [
      {"measurement": "EC50", "setting": "[1]; read-out: Activity", "result": "> 1", "unit": "µM"},
      {"measurement": "EC50", "setting": "[1]; read-out: EC50", "result": 30.4, "unit": "µM"},
      {"measurement": "CC50 at 4 day", "setting": "[2]", "result": 82, "unit": "µM"}
    ]},
    {"smiles": "Cc1ccccc1S(=O)(=O)NC(=O)N[C@H](Cc1ccccc1)c1ncccc1Br", "note": "[Example 112, (R)-N-((1-(3-bromopyridin-2-yl)-2-phenylethyl)carbamoyl)-2-methylbenzenesulfonamide, TFA]", "values": [
      {"measurement": "EC50", "setting": "[1]; read-out: Activity", "result": "> 1", "unit": "µM"},
      {"measurement": "CC50 at 4 day", "setting": "[2]", "result": "> 100", "unit": "µM"}
    ]},
    {"smiles": "Cc1ccccc1S(=O)(=O)NC(=O)NC(Cc1ccccc1)c1ncccc1Br", "note": "(centres unmarked) [Example 116, N-((1-(3-bromopyridin-2-yl)-2-phenylethyl)carbamoyl)-2-methylbenzenesulfonamide, TFA]", "values": [
      {"measurement": "EC50", "setting": "[1]; read-out: Activity", "result": "> 1", "unit": "µM"},
      {"measurement": "CC50 at 4 day", "setting": "[2]", "result": "> 100", "unit": "µM"}
    ]},
    {"smiles": "Cc1ccccc1S(=O)(=O)NC(=O)N[C@H](Cc1cc(F)cc(F)c1)c1ncccc1-c1ccc(F)c(C(N)=O)c1", "note": "[Example 117, (R)-5-(2-(2-(3,5-difluorophenyl)-1-(3-(o-tolylsulfonyl)ureido)ethyl)pyridin-3-yl)-2-fluorobenzamide, TFA]", "values": [
      {"measurement": "EC50", "setting": "[1]; read-out: Activity", "result": "> 1", "unit": "µM"},
      {"measurement": "EC50", "setting": "[1]; read-out: EC50", "result": 8.34, "unit": "µM"},
      {"measurement": "CC50 at 4 day", "setting": "[2]", "result": "> 100", "unit": "µM"}
    ]},
    {"smiles": "COC(=O)Nc1ccc(-c2cccnc2C(Cc2ccccc2)NC(=O)NS(=O)(=O)c2ccccc2Cl)cc1", "note": "(centres unmarked) [Example 118, methyl (4-(2-(1-(3-((2-chlorophenyl)sulfonyl)ureido)-2-phenylethyl)pyridin-3-yl)phenyl)carbamate, TFA]", "values": [
      {"measurement": "EC50", "setting": "[1]; read-out: Activity", "result": "> 1", "unit": "µM"},
      {"measurement": "CC50 at 4 day", "setting": "[2]", "result": "> 100", "unit": "µM"}
    ]},
    {"smiles": "Cc1ccccc1S(=O)(=O)NC(=O)N[C@@H](Cc1cc(F)cc(F)c1)c1ncccc1-c1ccc2cn(C)nc2c1", "note": "[Example 119, (S)-N-((2-(3,5-difluorophenyl)-1-(3-(2-methyl-2H-indazol-6-yl)pyridin-2-yl)ethyl)carbamoyl)-2-methylbenzenesulfonamide, TFA]", "values": [
      {"measurement": "EC50", "setting": "[1]; read-out: Activity", "result": "0.1 to 1", "unit": "µM"},
      {"measurement": "CC50 at 4 day", "setting": "[2]", "result": 58, "unit": "µM"}
    ]},
    {"smiles": "Cc1ccccc1S(=O)(=O)NC(=O)N[C@@H](Cc1cc(F)cc(F)c1)c1ncccc1-c1ccc(CN(C)C)cc1", "note": "[Example 120, (S)-N-((2-(3,5-difluorophenyl)-1-(3-(4-((dimethylamino)methyl)phenyl)pyridin-2-yl)ethyl)carbamoyl)-2-methylbenzenesulfonamide, TFA]", "values": [
      {"measurement": "EC50", "setting": "[1]; read-out: Activity", "result": "0.1 to 1", "unit": "µM"},
      {"measurement": "EC50", "setting": "[1]; read-out: EC50", "result": 0.36, "unit": "µM"},
      {"measurement": "CC50 at 4 day", "setting": "[2]", "result": "> 100", "unit": "µM"}
    ]},
    {"smiles": "Cc1ccccc1S(=O)(=O)NC(=O)N[C@@H](Cc1cc(F)cc(F)c1)c1ncccc1-c1cccc(CO)c1", "note": "[Example 121, (S)-N-((2-(3,5-difluorophenyl)-1-(3-(3-(hydroxymethyl)phenyl)pyridin-2-yl)ethyl)carbamoyl)-2-methylbenzenesulfonamide, TFA]", "values": [
      {"measurement": "EC50", "setting": "[1]; read-out: Activity", "result": "0.1 to 1", "unit": "µM"},
      {"measurement": "CC50 at 4 day", "setting": "[2]", "result": "> 100", "unit": "µM"}
    ]},
    {"smiles": "Cc1ccccc1S(=O)(=O)NC(=O)N[C@@H](Cc1cc(F)cc(F)c1)c1ncccc1-c1ccc(CN2CCOCC2)s1", "note": "[Example 122, (S)-N-((2-(3,5-difluorophenyl)-1-(3-(5-(morpholinomethyl)thiophen-2-yl)pyridin-2-yl)ethyl)carbamoyl)-2-methylbenzenesulfonamide, 2 TFA]", "values": [
      {"measurement": "EC50", "setting": "[1]; read-out: Activity", "result": "0.1 to 1", "unit": "µM"},
      {"measurement": "CC50 at 4 day", "setting": "[2]", "result": "> 100", "unit": "µM"}
    ]},
    {"smiles": "CCOc1ccc(-c2cccnc2[C@H](Cc2cc(F)cc(F)c2)NC(=O)NS(=O)(=O)c2ccccc2C)cc1F", "note": "[Example 123, (S)-N-((2-(3,5-difluorophenyl)-1-(3-(4-ethoxy-3-fluorophenyl)pyridin-2-yl)ethyl)carbamoyl)-2-methylbenzenesulfonamide, TFA]", "values": [
      {"measurement": "EC50", "setting": "[1]; read-out: Activity", "result": "0.1 to 1", "unit": "µM"},
      {"measurement": "EC50", "setting": "[1]; read-out: EC50", "result": 0.6, "unit": "µM"},
      {"measurement": "CC50 at 4 day", "setting": "[2]", "result": 55, "unit": "µM"}
    ]},
    {"smiles": "COc1ncccc1-c1cccnc1[C@H](Cc1cc(F)cc(F)c1)NC(=O)NS(=O)(=O)c1ccccc1C", "note": "[Example 124, (S)-N-((2-(3,5-difluorophenyl)-1-(2′-methoxy-[3,3′-bipyridin]-2-yl)ethyl)carbamoyl)-2-methylbenzenesulfonamide, TFA]", "values": [
      {"measurement": "EC50", "setting": "[1]; read-out: Activity", "result": "> 1", "unit": "µM"},
      {"measurement": "CC50 at 4 day", "setting": "[2]", "result": "> 100", "unit": "µM"}
    ]},
    {"smiles": "Cc1ccccc1S(=O)(=O)NC(=O)N[C@@H](Cc1cc(F)cc(F)c1)c1ncccc1-c1ccc(-c2cccs2)cc1", "note": "[Example 125, (S)-N-((2-(3,5-difluorophenyl)-1-(3-(4-(thiophen-2-yl)phenyl)pyridin-2-yl)ethyl)carbamoyl)-2-methylbenzenesulfonamide, TFA]", "values": [
      {"measurement": "EC50", "setting": "[1]; read-out: Activity", "result": "> 1", "unit": "µM"},
      {"measurement": "CC50 at 4 day", "setting": "[2]", "result": 38, "unit": "µM"}
    ]},
    {"smiles": "Cc1ccccc1S(=O)(=O)NC(=O)N[C@@H](Cc1cc(F)cc(F)c1)c1ncccc1-c1ccnc(F)c1C", "note": "[Example 126, (S)-N-((2-(3,5-difluorophenyl)-1-(2′-fluoro-3′-methyl-[3,4′-bipyridin]-2-yl)ethyl)carbamoyl)-2-methylbenzenesulfonamide, TFA]", "values": [
      {"measurement": "EC50", "setting": "[1]; read-out: Activity", "result": "> 1", "unit": "µM"},
      {"measurement": "EC50", "setting": "[1]; read-out: EC50", "result": 1.52, "unit": "µM"},
      {"measurement": "CC50 at 4 day", "setting": "[2]", "result": "> 33", "unit": "µM"}
    ]},
    {"smiles": "Cc1ccccc1S(=O)(=O)NC(=O)N[C@@H](Cc1cc(F)cc(F)c1)c1ncccc1-c1coc2ccccc12", "note": "[Example 127, (S)-N-((1-(3-(benzofuran-3-yl)pyridin-2-yl)-2-(3,5-difluorophenyl)ethyl)carbamoyl)-2-methylbenzenesulfonamide, TFA]", "values": [
      {"measurement": "EC50", "setting": "[1]; read-out: Activity", "result": "> 1", "unit": "µM"},
      {"measurement": "CC50 at 4 day", "setting": "[2]", "result": 72, "unit": "µM"}
    ]},
    {"smiles": "Cc1ccccc1S(=O)(=O)NC(=O)N[C@@H](Cc1cc(F)cc(F)c1)c1ncccc1-c1ccc(C#N)cc1", "note": "[Example 128, (S)-N-((1-(3-(4-cyanophenyl)pyridin-2-yl)-2-(3,5-difluorophenyl)ethyl)carbamoyl)-2-methylbenzenesulfonamide, TFA]", "values": [
      {"measurement": "EC50", "setting": "[1]; read-out: Activity", "result": "> 1", "unit": "µM"},
      {"measurement": "CC50 at 4 day", "setting": "[2]", "result": 80, "unit": "µM"}
    ]},
    {"smiles": "Cc1ccccc1S(=O)(=O)NC(=O)N[C@@H](Cc1cc(F)cc(F)c1)c1ncccc1-c1cccc(C(=O)OC(C)(C)C)c1", "note": "[Example 130, (S)-tert-butyl 3-(2-(2-(3,5-difluorophenyl)-1-(3-(o-tolylsulfonyl)ureido)ethyl)pyridin-3-yl)benzoate, TFA]", "values": [
      {"measurement": "EC50", "setting": "[1]; read-out: Activity", "result": "> 1", "unit": "µM"},
      {"measurement": "CC50 at 4 day", "setting": "[2]", "result": 53, "unit": "µM"}
    ]},
    {"smiles": "Cc1ccccc1S(=O)(=O)NC(=O)N[C@@H](Cc1cc(F)cc(F)c1)c1ncccc1-c1ccc(F)c(C(=O)O)c1", "note": "[Example 131, (S)-5-(2-(2-(3,5-difluorophenyl)-1-(3-(o-tolylsulfonyl)ureido)ethyl)pyridin-3-yl)-2-fluorobenzoic Acid, TFA]", "values": [
      {"measurement": "EC50", "setting": "[1]; read-out: Activity", "result": "> 1", "unit": "µM"},
      {"measurement": "CC50 at 4 day", "setting": "[2]", "result": "> 100", "unit": "µM"}
    ]},
    {"smiles": "Cc1ccccc1S(=O)(=O)NC(=O)N[C@@H](Cc1cc(F)cc(F)c1)c1ncccc1-c1ccc(F)c2ccccc12", "note": "[Example 132, (S)-N-((2-(3,5-difluorophenyl)-1-(3-(4-fluoronaphthalen-1-yl)pyridin-2-yl)ethyl)carbamoyl)-2-methylbenzenesulfonamide, TFA]", "values": [
      {"measurement": "EC50", "setting": "[1]; read-out: Activity", "result": "> 1", "unit": "µM"},
      {"measurement": "EC50", "setting": "[1]; read-out: EC50", "result": 4.81, "unit": "µM"},
      {"measurement": "CC50 at 4 day", "setting": "[2]", "result": 73, "unit": "µM"}
    ]},
    {"smiles": "Cc1cc(-c2cccnc2[C@H](Cc2cc(F)cc(F)c2)NC(=O)NS(=O)(=O)c2ccccc2C)c(C)s1", "note": "[Example 133, (S)-N-((2-(3,5-difluorophenyl)-1-(3-(2,5-dimethylthiophen-3-yl)pyridin-2-yl)ethyl)carbamoyl)-2-methylbenzenesulfonamide, TFA]", "values": [
      {"measurement": "EC50", "setting": "[1]; read-out: Activity", "result": "> 1", "unit": "µM"},
      {"measurement": "CC50 at 4 day", "setting": "[2]", "result": 71, "unit": "µM"}
    ]},
    {"smiles": "COc1c(F)cc(F)cc1-c1cccnc1[C@H](Cc1cc(F)cc(F)c1)NC(=O)NS(=O)(=O)c1ccccc1C", "note": "[Example 134]", "values": [
      {"measurement": "EC50", "setting": "[1]; read-out: Activity", "result": "> 1", "unit": "µM"},
      {"measurement": "CC50 at 4 day", "setting": "[2]", "result": "> 50", "unit": "µM"}
    ]}
  ]
}
